Measurements: publication PMC4834642, “Orthogonal ring-closing alkyne and olefin metathesis for the synthesis of small GTPase-targeting bicyclic peptides” (Nature Communications, 2016)
Bridge positions count the residues as written; N and C are the ends. Square brackets hold non-standard residues; d marks the D form. Peptide text beside a SMILES is read from it. * marks the point of attachment. FITC = O=C1OC2(c3ccc(O)cc3Oc3cc(O)ccc32)c2ccc(NC(=S)*)cc21; S5 = C=CCCC[C@](C)(N)C(=O)O; AEEA = NCCOCCOCC(=O)O

Legend:
[1] = On-resin ring-closing alkyne metathesis (RCAM), alpha-methyl-alpha-alkynyl residues at i,i+4, Mo alkylidyne complex 5 (2 mg/mL, 2 x 0.5 mL), Ar bubbling to remove 2-butyne; bicyclic entries (24-29) additionally closed by RCM (Grubbs I); conditions: the molecule shown is the open-chain precursor, toluene, 40.0 °C, 3.0 h
Rab8a6-176(GppNHp) = molecular target: T1, Rab8a6-176(GppNHp) (Homo sapiens, UniProt P61006); assay: Fluorescence polarization (FP) binding assay of fluorescein-labelled peptides; conditions: for Rel. Kd (Kd [Peptide]/Kd [StRIP3]) / Kd: FP, fluorescein-PEG labelled peptide 66 nM, 4 h room temperature, 25 mM HEPES pH 7.5; for Rel. Kd (Kd [Peptide]/Kd [StRIP3]): Kd values are single point measurements (n = 1); for Kd: average of triplicate measurements, errors 1σ
T1 construct: Expression and purification of Rab8a6-176 was performed analog to full-length Rab8a; made in house
T1 sequence (P61006 6-176): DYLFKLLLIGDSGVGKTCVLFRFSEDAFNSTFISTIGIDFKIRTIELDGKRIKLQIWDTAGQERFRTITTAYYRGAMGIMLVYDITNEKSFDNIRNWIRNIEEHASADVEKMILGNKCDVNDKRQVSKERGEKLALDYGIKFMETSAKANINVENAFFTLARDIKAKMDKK
Method: Rab8a6–176(GppNHp) was serially diluted in a buffer containing 25 mM HEPES (pH 7.5), 150 mM NaCl, 1 mM MgCl2, 1 mM TCEP, 0.01% Tween 20 and 1 μM GppNHp, treated with 66 nM fluorescein-labelled peptides and incubated for 4 h at room temperature. Fluorescence polarization values (λex=470 nm, λem=525 nm) were determined at room temperature. Initial studies for alkyne macrocyclized peptides were performed as single measurements. Final affinity measurements of a subset of peptides were performed in triplicates. After correction for changes in fluorescence intensity upon binding, the fluorescence anisotoropy data were converted into fraction bound of the FITC-labelled peptide and fitted to a one-site binding model derived from the law of mass action using Kd as the only fitting parameter (for details, see Supplementary Methods)[63]. Nonlinear regression was performed in Prism 5.0 (Graphpad)[64]. […]
using a PD-10 desalting column Sephadex G-25 DNA Grade (GE Healthcare) with elution buffer consisting of 20 mM HEPES (pH 7.5), 50 mM NaCl, 1 mM TCEP. After removal of Mg2+ the protein was diluted to 80 - 100 µM before addition of ZnCl2 (500 µM) and (NH4)2SO4 (200 mM). After addition of alkaline phosphatase (5 U mg-1 Rab protein) the mixture was incubated for 16 h at 4°C. For nucleotide exchange, the mixture contained a 5-fold excess of GppNHp during alkaline phosphatase incubation. Afterwards, the mixture was desalted using a PD-10 desalting column Sephadex G-25 DNA Grade (GE Healthcare) with elution buffer consisting of 25 mM HEPES (pH 7.5) 150 mM NaCl, 1 mM TCEP, 1 mM MgCl2 and 1 µM GppNHp.
Fluorescence polarization assay for the determination of dissociation […]
Rab8a6-176 was serially diluted in a buffer containing 25 mM HEPES (pH 7.5), 150 mM NaCl, 1 mM MgCl2, 1 mM TCEP, 0.01% tween 20 and 1 µM GppNHp (assay buffer), treated with 66 nM fluorescein-labeled peptides and incubated for 4 h at room temperature. Binding assays were performed in 384-well, small volume, black flat-bottom, non-binding plates (Greiner). Fluorescence polarization values (λex = 470 nm, λem = 525 nm) were determined using a Safire II plate reader (Tecan) at room temperature. Initial studies for alkyne macrocyclized peptides were performed as single measurements. Final affinity measurements of a subset of peptides were performed in triplicates. After correction for changes in fluorescence intensity upon binding, the fluorescence anisotoropy data were converted into fraction bound (Supplementary equation 1) of the FITC- labeled peptide and fitted to a one-site binding model derived from the law of mass action using Kd as the only fitting parameter (Supplementary equation 2).4 In case of incomplete binding due to the limited solubility of Rab proteins, anisotropy top-values were extrapolated and constrained as indicated below. Non-linear regression was performed in Prism 5.0 […]
(Supplementary equation 1)
A: observed anisotropy; Afree: anisotropy of free fluorophore; Abound: anisotoropy of bound fluorophore; Q: change in fluorescence intensity between free and bound state […]
(Supplementary equation 2)
Kd: dissociation constant; LT: total concentration of labeled peptide; cRab: protein concentration Microscale Thermophoresis (MST)

CC#CCCCC[C@](C)(NC(=O)[C@H](Cc1ccccc1)NC(=O)[C@H](CCC(=O)NC(c1ccccc1)(c1ccccc1)c1ccccc1)NC(=O)[C@H](CCC(=O)OC(C)(C)C)NC(=O)[C@](C)(CCCCC#CC)NC(=O)[C@H](CCC(=O)OC(C)(C)C)NC(=O)[C@H](CC(=O)OC(C)(C)C)NC(=O)[C@H](CC(=O)OC(C)(C)C)NC(=O)OCC1c2ccccc2-c2ccccc21)C(=O)N[C@@H](Cc1ccc(OC(C)(C)C)cc1)C(=O)N[C@@H](Cc1cn(C(c2ccccc2)(c2ccccc2)c2ccccc2)cn1)C(=O)N[C@@H](CC(C)C)C(=O)N[C@@H](CC(C)C)C(=O)N[C@@H](COC(C)(C)C)C(=O)N[C@@H](Cc1ccccc1)C(=O)N[C@@H](CC(=O)NC(c1ccccc1)(c1ccccc1)c1ccccc1)C(=O)N[C@@H](C)C(=O)N[C@H](C(N)=O)C(C)C
ring closure, overall yield ([1]; 23-membered ring): 16%

CC(C)C[C@H](NC(=O)[C@H](Cc1c[nH]cn1)NC(=O)[C@H](Cc1ccc(O)cc1)NC(=O)[C@]1(C)CCCCC#CCCC[C@](C)(NC(=O)[C@H](CCC(=O)O)NC(=O)[C@H](CC(=O)O)NC(=O)[C@H](CC(=O)O)NC(=O)COCCOCCNC(=S)Nc2ccc3c(c2)C(=O)OC32c3ccc(O)cc3Oc3cc(O)ccc32)C(=O)N[C@@H](CCC(=O)O)C(=O)N[C@@H](CCC(N)=O)C(=O)N[C@@H](Cc2ccccc2)C(=O)N1)C(=O)N[C@@]1(C)CCC/C=C\CCC[C@@](C)(C(=O)N[C@H](C(N)=O)C(C)C)NC(=O)[C@H](CC(N)=O)NC(=O)[C@H](Cc2ccccc2)NC(=O)[C@H](CO)NC1=O [compound 28]
Rel. Kd (Kd [Peptide]/Kd [StRIP3]) (Rab8a6-176(GppNHp)): 0.42

CC#CCCCC[C@](C)(NC(=O)[C@H](Cc1ccccc1)NC(=O)[C@H](CCC(=O)NC(c1ccccc1)(c1ccccc1)c1ccccc1)NC(=O)[C@H](CCC(=O)OC(C)(C)C)NC(=O)[C@](C)(CCCC#CC)NC(=O)[C@H](CCC(=O)OC(C)(C)C)NC(=O)[C@H](CC(=O)OC(C)(C)C)NC(=O)[C@H](CC(=O)OC(C)(C)C)NC(=O)OCC1c2ccccc2-c2ccccc21)C(=O)N[C@@H](Cc1ccc(OC(C)(C)C)cc1)C(=O)N[C@@H](Cc1cn(C(c2ccccc2)(c2ccccc2)c2ccccc2)cn1)C(=O)N[C@@H](CC(C)C)C(=O)N[C@@H](CC(C)C)C(=O)N[C@@H](COC(C)(C)C)C(=O)N[C@@H](Cc1ccccc1)C(=O)N[C@@H](CC(=O)NC(c1ccccc1)(c1ccccc1)c1ccccc1)C(=O)N[C@@H](C)C(=O)N[C@H](C(N)=O)C(C)C
ring closure, overall yield ([1]; 22-membered ring): 12%

CC(C)C[C@H](NC(=O)[C@H](CC(C)C)NC(=O)[C@H](Cc1c[nH]cn1)NC(=O)[C@H](Cc1ccc(O)cc1)NC(=O)[C@]1(C)CCCCC(Br)=C(Br)CCCC[C@](C)(NC(=O)[C@H](CCC(=O)O)NC(=O)[C@H](CC(=O)O)NC(=O)[C@H](CC(=O)O)NC(=O)COCCOCCNC(=S)Nc2ccc3c(c2)C(=O)OC32c3ccc(O)cc3Oc3cc(O)ccc32)C(=O)N[C@@H](CCC(=O)O)C(=O)N[C@@H](CCC(N)=O)C(=O)N[C@@H](Cc2ccccc2)C(=O)N1)C(=O)N[C@@H](CO)C(=O)N[C@@H](Cc1ccccc1)C(=O)N[C@@H](CC(N)=O)C(=O)N[C@@H](C)C(=O)N[C@H](C(N)=O)C(C)C [peptide 21]
Increase in binding affinity compared with StRIP3 (Rab8a6-176(GppNHp); FP Kd, Rab8a6-176(GppNHp)): 2 fold | Rel. Kd (Kd [Peptide]/Kd [StRIP3]) (Rab8a6-176(GppNHp)): 0.40 | Kd (Rab8a6-176(GppNHp)): 10.7 ± 0.5 µM

CC(C)C[C@H](NC(=O)[C@H](CC(C)C)NC(=O)[C@H](Cc1c[nH]cn1)NC(=O)[C@H](Cc1ccc(O)cc1)NC(=O)[C@]1(C)CCC/C=C\CCC[C@](C)(NC(=O)[C@H](CCC(=O)O)NC(=O)[C@H](CC(=O)O)NC(=O)[C@H](CC(=O)O)NC(=O)COCCOCCNC(=S)Nc2ccc3c(c2)C(=O)OC32c3ccc(O)cc3Oc3cc(O)ccc32)C(=O)N[C@@H](CCC(=O)O)C(=O)N[C@@H](CCC(N)=O)C(=O)N[C@@H](Cc2ccccc2)C(=O)N1)C(=O)N[C@@H](CO)C(=O)N[C@@H](Cc1ccccc1)C(=O)N[C@@H](CC(N)=O)C(=O)N[C@@H](C)C(=O)N[C@H](C(N)=O)C(C)C [StRIP3] ({FITC-AEEA}-DDE[S5]EQF[S5]YHLLSFNAV-NH2; staple (Z) 4-8; C-terminus assumed)
Rel. Kd (Kd [Peptide]/Kd [StRIP3]) (Rab8a6-176(GppNHp)): 1.00 | Kd (Rab8a6-176(GppNHp)): 20.7 ± 0.7 µM
